Read-outs that look alike come from different tables or passages of the source. *1 amine or outer side, *2 acyl side, *3 side chain or, on linkers, in order; H or OH if unused. Where a SMILES comes first, the peptide text is derived from it. Bridges are numbered along the chain shown (N, C = ends). Roman numbers before positions name the chains, in order. [ ]: non-standard residue; d: D form. Actinocin(9to1) = Cc1c2oc3c(C)ccc(C(=O)[*:1])c3nc-2c(C(=O)[*:2])c(N)c1=O; NMeV = CN[C@H](C(=O)O)C(C)C; Sar = CNCC(=O)O
What was measured:
[1] = test system: collagen prolyl-hydroxylase (CPH); conditions: cited from earlier work
[2] = test system: HIF hydroxylase (HPH activity); experiment: HIF hydroxylase (HPH) inhibition, statements of the description; type: biochemical
[3] = test system: rat SM-20 and human EGLN1 (PHD2), EGLN2 (PHD1), EGLN3 (PHD3); experiment: Recombinant enzymes (reticulocyte IVTT) promoting pVHL interaction with HIF-1α residues 549-582; type: biochemical; conditions: all enzymes
Experimental: To test the role of these gene products in regulating the interaction between human HIFα sub-units and the VHL E3 ligase complex, we first produced the proteins by reticulocyte IVTT. […] After incubation with relevant enzyme, HIF-α substrates were mixed with extracts from 786-0/VHL cells that stably express HA tagged human pVHL, and tested for interaction by anti-HA immunoprecipitation.

[4] = test system: HIF-α prolyl-hydroxylase (HIF-PH) of cell extract; experiment: Modifying activity (HIF-PH) of cell extract on HIF substrate (Gal/HIF-1α549-582/VP16 or 19:WT), pVHL capture assay; type: biochemical, mammalian
Method in brief: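 Immunopurified HIF-1α substrate (19:WT polypeptide or Gal/HIF-1α549-582/VP16) on beads was incubated with cell extract under test conditions, washed, and tested for capture of 35S-labelled IVTT pVHL, visualised by fluorography. Hydroxylation activity was inferred from pVHL capture.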

intact cells = experiment: Entry into intact cells; type: cell-based
From the text: In this Example it is shown that HIF-1α protein and the endogenous HIF target gene encoding carbonic anhydrase 9 (CA-9) are induced by exposure of cells to the PHD inhibitor, dimethyl oxalylglycine. […] The esterified form, dimethyloxalylglycine, has therefore been used to deliver the compound to tissue culture cells.
Application of an esterified form, dimethyloxalylglycine, to tissue culture cells results in stabilisation of HIF alpha chains (Example 1) and activation of transcription of endogenous HIF target genes (Example 5).

EGLN-2 and EGLN-3 = experiment: Modification and pVHL binding assay with reticulocyte lysate programmed with EGLN-2 or EGLN-3; type: biochemical, human; conditions: desferrioxamine 200 μM, cobaltous chloride 200 μM
From the text: Protein containing HIF-1 sequence (amino acids 549-582) was generated in a reticulocyte in vitro transcription translation reaction in the presence of 100 micromolar desferrioxamine, retrieved and then exposed to […] translates containing the putative enzymes as described above. These proteins contain the critical proline (564) which can be modified by hydroxylation and which enables recognition by von Hippel Lindau tumour suppressor protein (pVHL).
The modification of the HIF-1 sequence was assayed by the binding of the HIF-1 to radiolabelled pVHL, generated by in vitro transcription and translation of a pcDNA3 vector containing the human wild type pVHL open reading frame in a rabbit reticulocyte lysate in the presence of ^35S-methionine.
Modification and pVHL binding assays were performed as described above. Rabbit reticulocyte lysate was programmed with pcDNA3 based plasmids containing no insert, an insert encoding the full open reading frame of the human homologue of C. elegans Egl-9 known as EGLN-2, or an insert encoding the full open reading frame of the human homologue known as EGLN-3. Modification was performed in the absence of additives, in the presence of oxalylglycine, oxalylglycine plus 2-oxoglutarate, 200 μM desferrioxamine or 200 μM cobaltous chloride.

EGL-9 = experiment: Recombinant EGL-9 modification of HIF-1, HA.VHL-1 capture; type: biochemical, C. elegans
Experimental: Preincubation of C. elegans HIF-1 with worm extract or recombinant EGL-9 was for 30 min at 25° C. Preincubation of mammalian HIF-α polypeptides with cell extract or recombinant enzymes was at 37° C. for 10-30 min unless otherwise stated. For assays of recombinant enzymes, 2-oxoglutarate (2 mM), iron (100 μM), and ascorbate (2 mM) were added to the reaction buffer unless otherwise indicated. Reactions performed in hypoxia were in the stated atmospheric oxygen concentration (balance nitrogen) obtained using a controlled environment Invivo2 400 hypoxia work-station (Ruskinn Technologies) and buffers pre-equilibrated with the appropriate atmosphere. Reactions (50 μl) were performed in open Eppendorf tubes with mixing and stopped by the addition of 20 volumes desferrioxamine (100 μM}.
To test whether EGL-9 could act directly on HIF-1, further preparations were made by baculoviral expression in insect cells and by expression as maltose binding protein ([…]) fusion proteins in E. coli. Since full length MBP/EGL-9 protein was insoluble when expressed in E. coli we prepared an N-terminal truncation containing residues 359-723 (MBP/ΔN.EGL-9) that preserved the predicted catalytic domain and had HIF.1 modifying activity when expressed as an IVTT. […]

HIF-α/pVHL interaction = experiment: Interaction of HIF-1α and pVHL.HA reticulocyte IVTTs, anti-HA co-immunoprecipitation; type: biochemical, human; conditions: 100 μM added to the HIF-1α IVTT
Experimental: ^35S-Methionine labelled […] subunits and pVHL.HA were produced separately by IVTT (in vitro transcription and translation) in reticulocyte lysates. IVTTs were performed under different conditions, mixed, and assayed for interaction by anti-HA co-immunoprecipitation. These in vitro assays allowed analysis of the HIFα/pVHL interaction using the recombinant proteins.
Labelled HIF-1α and pVHL.HA were generated separately in reticulocyte lysates (IVTT), in the presence or absence of Co (II), desferrioxamine, or Fe(II). Lysates were mixed in various combinations, and interactions assayed by anti-HA immunoprecipitation.
• 1. G. L. Semenza, Genes Dev 14, 1983-91. (2000). • 2. N. V. Iyer, et al., Genes Dev. 12, 149-162 (1997). • 3. E. Maltepe, J. V. Schmidt, D. Baunoch, C. A. Bradfield, M. C. Simon, Nature 386, 403-407 (1997). • 4. G. L. Wang, B.-H. Jiang, E. A. Rue, G. L. Semenza, Proc. Natl. Acad. Sci. USA 92, 5510-5514 (1995). • 5. S. Salceda, J. Caro, J. Biol. Chem. 272, 22642-22647 (1997). • 6. L. E. Huang, J. Gu, M. Schau, H. F. Bunn, Proc. Natl. Acad. Sci. USA 95, 7987-7992 (1998). • 7. M. S. Wiesener, et al., Blood 92, 2260-2268 (1998). • 8. P. H. Maxwell, et al., Nature 399, 271-275 (1999). • 9. K. Iwai, et al., Proc. Natl. Acad. Sci. USA 96, 12436-12441 (1999). • 10. J. Lisztwan, G. Imbert, C. Wirbelauer, M. Gstaiger, W. Krek, Genes Dev 13, 1822-33 (1999). • 11. M. E. Cockman, et al., J Biol Chem (2000). • 12. M. Ohh, et al., Nat Cell Biol 2, 423-7. (2000). • 13. T. Kamura, et al., Proc Natl Acad Sci USA 97, 10430-5. (2000). • 14. K. Tanimoto, Y. Makino, T. Pereira, L. Poellinger, Embo J 19, 4298-309. (2000). • 15. M. A. Goldberg, S. P. Dunning, H. F. Bunn, Science 242, 1412-1415 (1988). • 16. G. L. Wang, G. L. Semenza, Blood 82, 3610-3615 (1993). • 17. G. L. Semenza, Cell 98, 281-284 (1999). • 18. Hypoxia (<0.1% oxygen) was obtained in a workstation with O2, CO2 and temperature control (Ruskinn Technologies, Leeds, UK). For hypoxic harvest, buffers were preincubated in the chamber overnight. […]

HeLa cells = experiment: Hypoxic induction of total HIF-PH activity in HeLa cell lysates, pVHL capture assay; type: cell-based, human; conditions: hypoxia 16 hours

Question: Which results are given for O=C(O)CNC(=O)C(=O)O [N-oxalylglycine]?
Answer: inhibition of CPH [1]: inhibitor; inhibition of HIF hydroxylase / HPH [2]: act as inhibitors; inhibition of HIF hydroxylase / HPH ([2]; listed as N-oxaloglycine): inhibitor; inhibition of enzyme activity promoting pVHL interaction with HIF-1α 549-582 [3]: strongly inhibited; Inhibition of pVHL capture ([4]; 0-2000 μM inhibitor, RCC4 cell extract, 5 or 100 μM FeCl2): increased with the concentration of inhibitor; inhibition of modifying activity of cell extract on 19:WT (pVHL capture) ([4]; N-oxalylglycine 0.2-1 mM, overcome by 5 mM 2-oxoglutarate): completely inhibit; ability to enter intact cells (intact cells): incapable of entering intact cells; Enzyme activity (modification of HIF-1 to VHL binding form) (EGLN-2 and EGLN-3): diminished

Question: What does the source list for [Cl-].[Cl-].[Co+2] [Co(II), cobaltous chloride]?
Answer: effect on recombinant EGL-9 activity (EGL-9): direct inhibition; capture of HIF-1α by pVHL.HA (HIF-α/pVHL interaction): greatly diminished capture; inhibition of enzyme activity promoting pVHL interaction with HIF-1α 549-582 [3]: strongly inhibited; Enzyme activity (modification of HIF-1 to VHL binding form) (EGLN-2 and EGLN-3): diminished

Question: For Cc1c2oc3c(C)ccc(C(=O)N[C@@H]4C(=O)N[C@H](C(C)C)C(=O)N5CCC[C@H]5C(=O)N(C)CC(=O)N(C)[C@@H](C(C)C)C(=O)O[C@@H]4C)c3nc-2c(C(=O)N[C@@H]2C(=O)N[C@H](C(C)C)C(=O)N3CCC[C@H]3C(=O)N(C)CC(=O)N(C)[C@@H](C(C)C)C(=O)O[C@@H]2C)c(N)c1=O [actinomycin D] (I: T[dV]P[Sar][NMeV] / II: T[dV]P[Sar][NMeV]; ester I:1-I:C, II:1-II:C; linker I:N-II:N via Actinocin(9to1)), which “effect on induction of total HIF-PH activity by hypoxia” value (HeLa cells) is on record?
Answer: blocked

— patent US9844546B2, “Antibody against human HIF hydroxylase” (OXFORD UNIVERSITY INNOVATION LIMITED, priority 2001, dated 2017)
